Results taken from patent US20120016019A1, “PHARMACEUTICAL COMPOSITION FOR TREATING OR PREVENTING CANCER” (priority 2010, published 2012).
Where “and” joins values, the source holds several entries; their conditions need not be identical. Equal values may be shown once. Read-outs that look alike come from different tables or passages of the source.

Columns and labels:
[1] = tested on: C-6; conditions: rat, 220 nM
Procedure: (§1) Cancer cell lines HCC 1419, MCF-7, MDA-MB-468, SKBR3, PC3, HT1299, Saos-2, C-6, AsPc, MDA-MB-231, RKO, HeLa and TT, and normal cell lines HME 50 HT, BJ and CCD-1074sk were tested for changes in metabolism (XTT assay) and cell death (cell counts).
(§2) Cells were plated into 48-well Corning CellBind™ plates at densities of 20,000 cells for normal cells and 10,000˜20,000 cells for cancer cells. 24 to 48 h after plating, cells were treated with the composition according to the invention at concentrations of 4.5e-2M. The first time point treated with the composition of the invention is 0 h. At 3 days after the first treatment with the composition of the invention, medium was changed and the composition of the invention at the same concentrations were added to the cultured cells.
(§3) The XTT assay is an accepted analysis technique for viability and cytotoxicity of anticancer drugs or other pharmaceutical compositions. Cells were seeded in a 96-well tissue culture plate at a density of 10,000 cells for normal cells and 5,000 cells for cancer cells. After incubation period, the formazan dye formed was quantitated using an ELISA reader. The optimal wavelength used in experiments was 500 nm, and it was measured at 0 h, 12 h, 24 h, 48 h, 4 d and 7 d, respectively. The obtained values were generated using the software SoftMax Pro 4.8.
(§4) The cell viability was calculated according to the manufacturer's instructions as follows (the term “blank” means XTT in medium only):
(§5) Cellular cytotoxicity was calculated according to the manufacturer's instructions as follows: […]

[2] = tested on: SKBR3; conditions: for The absorbance, Mean value / The absorbance, group - Blank / The absorbance: SKBR3, XTT 500 nm; for The absorbance: single wells
Procedure: as §1, §2, §3, §4, §5

[3] = tested on: PC-3; experiment: Cell counts, PC-3; assay type: cell-based, human; conditions: for cell counts: single wells
Procedure: Cells were harvested using Trypsin-EDTA at the designated time points. […] Two 48-well plates were used per cell line, and they were measured at 0 h, 12 h, 24 h, 48 h, 4 d and 7 d, respectively.
In the 1st plate, cells were treated with the composition according to the invention and medium was changed at 0 h and 3 d.
In the 2nd plate, 7 d of the 1st week (LC-50) is the same as 0 h of the 2nd week (recovery).
At 0 h of the 2nd week, medium was exchanged with untreated medium for the remainder of the experiment. The untreated controls were not measured in the 2nd week (recovery) due to overconfluence by the end of the 1st week.

`CC(=O)O[C@H]1C(=O)[C@@]2(C)[C@H]([C@H](OC(=O)c3ccccc3)[C@]3(O)C[C@H](OC(=O)[C@H](O)[C@@H](NC(=O)c4ccccc4)c4ccccc4)C(C)=C1C3(C)C)[C@]1(OC(C)=O)CO[C@@H]1C[C@@H]2O` [Taxol] was tested, and the The viability ([1]; 12 h) was 0.8102, the The viability ([1]; 4 d) was 0.8804 and the “The absorbance, Mean value” ([2]; 1st week (LC50), 0 h) was 0.3968. For the same molecule, the “The absorbance, group - Blank” value ([2]; 1st week (LC50), 0 h) was 0.2164, the The absorbance ([2]; 1st week (LC50), 0 h) was 0.4034 and 0.3885 and 0.3985 and the “The absorbance, Mean value” ([2]; 1st week (LC50), 12 h) was 1.5205. For the same molecule, the “The absorbance, group - Blank” value ([2]; 1st week (LC50), 12 h) was 1.3402, the “The absorbance, group - Blank” value ([2]; 1st week (LC50), 24 h) was 1.8347 and the “The absorbance, Mean value” ([2]; 1st week (LC50), 48 h) was 1.6721. For the same molecule, the “The absorbance, group - Blank” value ([2]; 1st week (LC50), 48 h) was 1.4917, the The absorbance ([2]; 1st week (LC50), 48 h) was 1.6738 and 1.629 and 1.7134 and the “The absorbance, Mean value” ([2]; 1st week (LC50), 4 d) was 1.1935. For the same molecule, the The absorbance ([2]; 1st week (LC50), 4 d) was 1.2586 and 1.1724 and 1.1494, the “The absorbance, Mean value” ([2]; 1st week (LC50), 7 d) was 1.0281 and the “The absorbance, group - Blank” value ([2]; 1st week (LC50), 7 d) was 0.8478. The The absorbance ([2]; 1st week (LC50), 7 d) was 0.9379 and 0.9708 and 1.1757, the “The absorbance, Mean value” ([2]; 2nd week (recovery), 0 h) was 1.0435 and the “The absorbance, group - Blank” value ([2]; 2nd week (recovery), 0 h) was 0.8631. The The absorbance ([2]; 2nd week (recovery), 0 h) was 1.0568 and 1.0836 and 0.99, the “The absorbance, Mean value” ([2]; 2nd week (recovery), 24 h) was 1.1704 and the “The absorbance, group - Blank” value ([2]; 2nd week (recovery), 24 h) was 0.9900. The The absorbance ([2]; 2nd week (recovery), 24 h) was 1.1654 and 1.3673 and 0.9784, the “The absorbance, Mean value” ([2]; 2nd week (recovery), 48 h) was 1.0440 and the “The absorbance, group - Blank” value ([2]; 2nd week (recovery), 48 h) was 0.8636. For the same molecule, the The absorbance ([2]; 2nd week (recovery), 48 h) was 0.9057 and 0.8251 and 1.4012, the “The absorbance, Mean value” ([2]; 2nd week (recovery), 4 d) was 1.2517 and the “The absorbance, group - Blank” value ([2]; 2nd week (recovery), 4 d) was 1.0713. The The absorbance ([2]; 2nd week (recovery), 4 d) was 1.252 and 1.6151 and 0.888, the “The absorbance, Mean value” ([2]; 2nd week (recovery), 7 d) was 0.9393 and the “The absorbance, group - Blank” value ([2]; 2nd week (recovery), 7 d) was 0.7590. For the same molecule, the The absorbance ([2]; 2nd week (recovery), 7 d) was 0.7048 and 1.1412 and 0.972, the The cytotoxicity ([2]; human, 0 h, 220 nM) was −1.4298 and the The viability ([2]; human, 12 h, 220 nM) was 0.7165. The The cytotoxicity ([2]; human, 24 h, 220 nM) was 0.4771, the The cytotoxicity ([2]; human, 48 h, 220 nM) was 0.6010 and the “killing of PC-3 cells” value [3] was “relatively resistant to Taxol”. For the same molecule, the “cell counts, Mean value” ([3]; 1st week (LC50), 0 h) was 6580, the “cell counts, Mean value” ([3]; 1st week (LC50), 12 h) was 5462 and the cell counts ([3]; 1st week (LC50), 12 h) was 4805 and 5805 and 5775. The “cell counts, Mean value” ([3]; 1st week (LC50), 24 h) was 5205, the cell counts ([3]; 1st week (LC50), 24 h) was 4360 and 4820 and 6435 and the “cell counts, Mean value” ([3]; 1st week (LC50), 48 h) was 2013. For the same molecule, the cell counts ([3]; 1st week (LC50), 48 h) was 1821 and 1969, the “cell counts, Mean value” ([3]; 1st week (LC50), 4 d) was 1029 and the cell counts ([3]; 1st week (LC50), 4 d) was 861 and 975 and 1250. The “cell counts, Mean value” ([3]; 2nd week (recovery), 0 h) was 514, the cell counts ([3]; 2nd week (recovery), 0 h) was 392 and 389 and 760 and the “cell counts, Mean value” ([3]; 2nd week (recovery), 24 h) was 305. The cell counts ([3]; 2nd week (recovery), 24 h) was 269 and 328 and 318, the “cell counts, Mean value” ([3]; 2nd week (recovery), 48 h) was 350 and the cell counts ([3]; 2nd week (recovery), 48 h) was 369 and 303 and 378. The “cell counts, Mean value” ([3]; 2nd week (recovery), 4 d) was 1324, the cell counts ([3]; 2nd week (recovery), 4 d) was 1574 and 1376 and 1023 and the “cell counts, Mean value” ([3]; 2nd week (recovery), 7 d) was 483.
